# Source: patent EP0694535A1, “Non-peptidyl tachykinin receptor antagonists” (ELI LILLY AND COMPANY, priority 1994, dated 1996)
# Columns and labels:
# NK-1 receptor = molecular target: T1, NK-1 receptor (Homo sapiens, UniProt P25103); test: NK-1 Receptor Binding Assay (competition with labeled substance P on IM9 cells); details: for inhibition at 10 µM: inhibition of substance P binding to the NK-1 receptor, read-out: Percent Inhibition; for IC50: concentration which inhibits fifty percent of the binding of substance P, 20 pM labeled substance P, 45 minutes at 4°C
# T1 construct: an aliquot of IM9 cells; endogenous in cells; host or cells: IM9 cells (whole cells)
# T1 sequence (P25103 whole entry): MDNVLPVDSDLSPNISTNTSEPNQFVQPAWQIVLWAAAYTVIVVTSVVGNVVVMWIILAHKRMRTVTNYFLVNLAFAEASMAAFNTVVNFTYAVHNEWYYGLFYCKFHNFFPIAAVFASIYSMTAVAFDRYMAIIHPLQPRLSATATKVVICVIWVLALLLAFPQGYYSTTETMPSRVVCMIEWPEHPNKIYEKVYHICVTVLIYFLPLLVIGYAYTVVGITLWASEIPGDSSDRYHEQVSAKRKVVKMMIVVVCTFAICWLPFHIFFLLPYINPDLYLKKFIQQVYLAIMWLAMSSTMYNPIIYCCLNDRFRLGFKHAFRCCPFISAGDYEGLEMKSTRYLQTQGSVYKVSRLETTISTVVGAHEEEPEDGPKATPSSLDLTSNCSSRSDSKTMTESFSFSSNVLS
# Procedure: Radioreceptor binding assays were performed using a derivative of a previously published protocol. D.G. Payan, et al., Journal of Immunology, 133:3260-3265 (1984). In this assay an aliquot of IM9 cells (1 x 10⁶ cells/tube in […] medium supplemented with 10% fetal calf serum) was incubated with 20 pM […] substance P in the presence of increasing competitor concentrations for 45 minutes at 4°C.
# The IM9 cell line is a well-characterized cell line which is readily available to the public. See. e.g., Annals of the New York Academy of Science, 190: 221-234 (1972); Nature (London), 251:443-444 (1974); Proceedings of the National Academy of Sciences (USA), 71:84-88 (1974). These cells were routinely cultured in RPMI 1640 supplemented with 50 µg/ml gentamicin sulfate and 10% fetal calf serum.
# The reaction was terminated by filtration through a glass fiber filter harvesting system using filters previously soaked for 20 minutes in 0.1% polyethylenimine. Specific binding of labeled substance P was determined in the presence of 20 nM unlabeled ligand.
# Column 1 provides the example number of the test antagonist compound. The next columns detail the substitution patterns of the test compound.
# human NK-2 receptor = molecular target: T2, human NK-2 receptor (Homo sapiens, UniProt P21452); test: NK-2 Receptor Binding Assay (CHO-hNK-2R membranes, iodohistidyl-neurokinin A); details: for inhibition at 10 µM: inhibition of neurokinin A binding at ten micromolar, read-out: Percent Inhibition @ 10 μM; for IC50: values in parentheses, amount necessary to inhibit fifty percent of the binding of neurokinin A
# T2 construct: expressed in transfected cells; host or cells: CHO-hNK-2R cells (CHO-derived), membrane preparation
# T2 sequence (P21452 1-398): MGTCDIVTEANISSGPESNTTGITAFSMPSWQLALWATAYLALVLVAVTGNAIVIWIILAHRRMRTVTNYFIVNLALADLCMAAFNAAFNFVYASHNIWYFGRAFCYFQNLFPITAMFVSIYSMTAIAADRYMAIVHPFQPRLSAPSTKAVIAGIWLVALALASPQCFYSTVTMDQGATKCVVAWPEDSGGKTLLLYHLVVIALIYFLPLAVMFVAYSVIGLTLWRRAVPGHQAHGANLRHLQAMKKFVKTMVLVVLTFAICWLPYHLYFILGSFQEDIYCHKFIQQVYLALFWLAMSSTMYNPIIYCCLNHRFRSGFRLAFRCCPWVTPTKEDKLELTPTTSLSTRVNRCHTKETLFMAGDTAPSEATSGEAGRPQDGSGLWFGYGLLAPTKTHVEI
# Procedure: The CHO-hNK-2R cells, a CHO-derived cell line transformed with the human NK-2 receptor, expressing about 400,000 such receptors per cell, were grown in 75 cm flasks or roller bottles in minimal essential medium (alpha modification) with 10% fetal bovine serum. The gene sequence of the human NK-2 receptor is given in N.P. Gerard, et al., Journal of Biological Chemistry, 265:20455-20462 (1990).
# For preparation of membranes, 30 confluent roller bottle cultures were dissociated by washing each roller bottle with 10 ml of Dulbecco's phosphate buffered saline (PBS) without calcium and magnesium, followed by addition of 10 ml of enzyme-free cell dissociation solution (PBS-based, from Specialty Media, Inc.). After an additional 15 minutes, the dissociated cells were pooled and centrifuged at 1,000 RPM for 10 minutes in a clinical centrifuge. Membranes were prepared by homogenization of the cell pellets in 300 ml 50 mM Tris buffer, pH 7.4 with a Tekmar® homogenizer for 10-15 seconds, followed by centrifugation at 12,000 RPM (20,000 x g) for 30 minutes using a Beckman JA-14® rotor. The pellets were washed once using the above procedure. and the final pellets were resuspended in 100-120 ml 50 mM Tris buffer, pH 7.4, and 4 ml aliquots stored frozen at -70 °C. The protein concentration of this preparation was 2 mg/ml.
# For the receptor binding assay, one 4-ml aliquot of the CHO-hNK-2R membrane preparation was suspended in 40 ml of assay buffer containing 50 mM Tris, pH 7.4, 3 mM manganese chloride, 0.02% bovine serum albumin (BSA) and 4 µg/ml chymostatin. A 200 µl volume of the homogenate (40 µg protein) was used per sample. The radioactive ligand was [[…]]iodohistidyl-neurokinin A (New England Nuclear, NEX-252), 2200 Ci/mmol. The ligand was prepared in assay buffer at 20 nCi per 100 µl; the final concentration in the assay was 20 pM. Non-specific binding was determined using 1 µM eledoisin. Ten concentrations of eledoisin from 0.1 to 1000 nM were used for a standard concentration-response curve.
# All samples and standards were added to the incubation in 10 µl dimethylsulfoxide (DMSO) for screening (single dose) or in 5 µl DMSO for IC₅₀ determinations. The order of additions for incubation was 190 or 195 µl assay buffer, 200 µl homogenate, 10 or 5 µl sample in DMSO, 100 µl radioactive ligand. The samples were incubated 1 hr at room temperature and then filtered on a cell harvester through filters which had been presoaked for two hours in 50 mM Tris buffer, pH 7.7, containing 0.5% BSA. The filter was washed 3 times with approximately 3 ml of cold 50 mM Tris buffer, pH 7.7. The filter circles were then punched into 12 x 75 mm polystyrene tubes and counted in a gamma counter.
# Table II, infra, provides a representative sample of the effectiveness as NK-2 receptor antagonists of many of the compounds of Formula I. The first column provides the Example number of the compound tested. The second column provides either the percent inhibition of neurokinin A binding when the compound is present in a ten micromolar concentration or the amount of compound (in micromolar amounts) necessary to inhibit fifty percent of the binding of neurokinin A. Those values which represent IC₅₀ values are designated by parentheses.
SMILES,inhibition at 10 µM (NK-1 receptor),inhibition at 10 µM (human NK-2 receptor),IC50 (NK-1 receptor),IC50 (human NK-2 receptor)
"Cc1cccc(-c2nc3ccccc3n2Cc2ccccc2Cl)c1 [Example 56, 1-(2-chlorobenzyl)-2-(3-methylphenyl)-benzimidazole]",71%,63.7%,,
"Cc1cccc(-c2nc3ccccc3n2Cc2ccc(Cl)c(Cl)c2)c1 [Example 64, 1-(3,4-Dichlorobenzyl)-2-(3-methylphenyl)benzimidazole]",41%,58.7%,,
"Cc1cccc(-c2nc3ccccc3n2Cc2ccccc2I)c1 [Example 61, 1-(2-Iodobenzyl)-2-(3-methylphenyl)benzimidazole]",66%,60.1%,,
"Cc1cccc(-c2nc3ccccc3n2Cc2ccc(Cl)cc2)c1 [Example 58, 1-(4-Chlorobenzyl)-2-(3-methylphenyl)benzimidazole]",29%,42.9%,,
"Cc1cccc(-c2nc3ccccc3n2Cc2cccc(Cl)c2)c1 [Example 57, 1-(3-Chlorobenzyl)-2-(3-methylphenyl)benzimidazole]",,50.8%,2650 nM,
"Cc1cccc(-c2nc3ccc(OCCN4CCCCC4)cc3n2Cc2ccccc2)c1 [Example 85, 1-benzyl-2-(3-methylphenyl)-6-[2-(1-piperidinyl)ethoxy]benzimidazole]",,73.1%,753 nM,
"COc1cc(-c2nc3ccc(OCCN4CCOCC4)cc3n2Cc2ccccc2)cc(OC)c1OC [Example 70, 1-benzyl-2-(3,4,5-trimethoxyphenyl)-6-[2-(4-morpholinyl)ethoxy]benzimidazole]",,63.7%,85 nM,
"COc1cc(-c2nc3ccc(OCCN4CCCCC4)cc3n2Cc2ccccc2)cc(OC)c1OC [Example 71, 1-benzyl-2-(3,4,5-trimethoxyphenyl)-6-[2-(1-piperidinyl)ethoxy]benzimidazole]",,70.1%,60 nM,
"Cc1cccc(-c2nc3ccc(O)cc3n2Cc2ccccc2)c1 [Example 84, 1-benzyl-2-(3-methylphenyl)-6-hydroxybenzimidazole]",,37.8%,590 nM,
"Cc1cccc(-c2nc3ccc(OCCN4CCCCCC4)cc3n2Cc2ccccc2)c1 [Example 92, 1-benzyl-2-(3-methylphenyl)-6-[2-(hexamethyleneimin-1-yl)ethoxy]benzimidazole]",,82.5%,,
"Cc1cccc(-c2nc3ccc(OCCCN4CCCCC4)cc3n2Cc2ccccc2)c1 [Example 95, 1-benzyl-2-(3-methylphenyl)-6-[3-(piperdin-1-yl)propoxy]benzimidazole]",,80.4%,,

# Second part, the molecule after the results:
inhibition at 10 µM (NK-1 receptor),inhibition at 10 µM (human NK-2 receptor),IC50 (NK-1 receptor),IC50 (human NK-2 receptor),SMILES
72%,62.6%,,,"Cc1cccc(-c2nc3ccccc3n2Cc2ccccc2Br)c1 [Example 60, 1-(2-Bromobenzyl)-2-(3-methylphenyl)benzimidazole]"
,52.9%,2050 nM,,"COc1cc(-c2nc3ccccc3n2Cc2cccc(C)c2)cc(OC)c1OC [Example 44, 1-(3-methylbenzyl)-2-(3,4,5-trimethoxyphenyl)-benzimidazole]"
56%,86.2%,,,"COc1cc(-c2nc3ccccc3n2Cc2ccc(Cl)cc2Cl)cc(OC)c1OC [Example 54, 1-(2,4-dichlorobenzyl)-2-(3,4,5-trimethoxyphenyl)-benzimidazole]"
20%,-7.1%,,,"COc1cc(-c2nc3ccccc3n2Cc2c(Cl)cccc2Cl)cc(OC)c1OC [Example 52, 1-(2,6-dichlorobenzyl)-2-(3,4,5-trimethoxyphenyl)-benzimidazole]"
,73.7%,815 nM,,"COc1cc(-c2nc3ccccc3n2Cc2ccccc2Cl)cc(OC)c1OC [Example 41, 1-(2-chlorobenzyl)-2-(3,4,5-trimethoxyphenyl)-benzimidazole]"
,,329 nM,7480 nM,"COc1cc(-c2nc3ccc(OCCCl)cc3n2Cc2ccccc2)cc(OC)c1OC [Example 76, 1-benzyl-2-(3,4,5-trimethoxyphenyl)-6-(2-chloroethoxy)benzimidazole]"
,53.8%,74 nM,,"COc1cc(-c2nc3ccc(OCCN4CCCC4)cc3n2Cc2ccccc2)cc(OC)c1OC [Example 72, 1-benzyl-2-(3,4,5-trimethoxyphenyl)-6-[2-(1-pyrroldinyl)ethoxy]benzimidazole]"
56%,-1.5%,,,"COc1ccc(Cn2c(-c3cc(OC)c(OC)c(OC)c3)nc3ccccc32)cc1 [Example 46, 1-(4-methoxybenzyl)-2-(3,4,5-trimethoxyphenyl)-benzimidazole]"
,68.4%,842 nM,,"COc1cc(-c2nc3ccccc3n2Cc2ccccc2C)cc(OC)c1OC [Example 43, 1-(2-methylbenzyl)-2-(3,4,5-trimethoxyphenyl)-benzimidazole]"
,84.8%,591 nM,,"COc1cc(-c2nc3ccccc3n2Cc2ccccc2Br)cc(OC)c1OC [Example 51, 1-(2-bromobenzyl)-2-(3,4,5-trimethoxyphenyl)-benzimidazole]"
77%,55%,,,"COc1cc(-c2nc3ccccc3n2Cc2cccc(Cl)c2)cc(OC)c1OC [Example 40, 1-(3-chlorobenzyl)-2-(3,4,5-trimethoxyphenyl)-benzimidazole]"
53%,21.9%,,,"COc1cc(-c2nc3ccccc3n2Cc2ccc(C)cc2)cc(OC)c1OC [Example 55, 1-(4-methylbenzyl)-2-(3,4,5-trimethoxyphenyl)-benzimidazole]"
61%,2.6%,,,"COc1cc(-c2nc3ccccc3n2Cc2ccc(Cl)cc2)cc(OC)c1OC [Example 42, 1-(4-chlorobenzyl)-2-(3,4,5-trimethoxyphenyl)-benzimidazole]"
,,,4290 nM,"COc1cc(-c2nc3ccc(OCCN4CCCCC4)cc3n2Cc2ccccc2Br)cc(OC)c1OC [Example 115, 1-(2-bromobenzyl)-2-(3,4,5-trimethoxyphenyl)-6-[2-(piperidin-1-yl)ethoxy]benzimidazole]"
,57.4%,,,"COc1cc(-c2nc3ccc(O)cc3n2Cc2ccccc2Br)cc(OC)c1OC [Example 114, 1-(2-bromobenzyl)-2-(3,4,5-trimethoxyphenyl)-6-hydroxybenzimidazole]"
